Assay results taken from patent EP2951180B1, “2,6,7,8 SUBSTITUTED PURINES AS HDM2 INHIBITORS” (Merck Sharp & Dohme Corp., priority 2013, dated 2014).

Biological target: T1, HDM2 (Homo sapiens, UniProt Q00987)
T1 construct: Thioredoxin (N); made in house; host or cells: E. coli strain BL21(DE3)Rosetta
Test: FRET assay (HDM2 inhibition; method not described in this part)
Type: binding
Conditions: Table 2

T1 sequence (Q00987 17-125): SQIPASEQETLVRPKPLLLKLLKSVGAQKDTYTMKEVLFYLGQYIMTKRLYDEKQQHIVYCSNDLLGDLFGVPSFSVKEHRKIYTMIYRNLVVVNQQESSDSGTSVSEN

With `COc1ncc(-c2nc3nc(C(=O)O)nc(N[C@H](C)C4CC4)c3n2Cc2ccc(C(F)(F)F)cc2)cc1F` [Example 2.49, 6-{[(1R)-1-cyclopropylethyl]amino}-8-(5-fluoro-6-methoxypyridin-3-yl)-7-[4-(trifluoromethyl)benzyl]-7H-purine-2-carboxylic acid] the IC50 was 310 nM.
Work on `Cc1cc(C)cc(-c2nc3nc(C(=O)O)nc(N[C@H](C)C4CC4)c3n2Cc2ccc(C(F)(F)F)cc2)c1` [Example 2.50, 6-{[(1R)-1-cyclopropylethyl]amino}-8-(3,5-dimethylphenyl)-7-[4-(trifluoromethyl)benzyl]-7H-purine-2-carboxylic acid] yielded an IC50 of 120 nM.
`C[C@@H](Nc1nc(C(=O)O)nc2nc(-c3cnc(O)c(F)c3)n(Cc3ccc(C(F)(F)F)cc3)c12)C1CC1` [Example 2.51, 6-{[(1R)-1-cyclopropylethyl]amino}-8-(5-fluoro-6-hydroxypyridin-3-yl)-7-[4-(trifluoromethyl)benzyl]-7H-purine-2-carboxylic acid] gave an IC50 of 1230 nM.
`Cc1ccc(-c2nc3nc(C(=O)O)nc(N[C@H](C)C4CC4)c3n2Cc2ccc(C(F)(F)F)cc2)c(C)c1` [Example 2.52, 6-{[(1R)-1-cyclopropylethyl]amino}-8-(2,4-dimethylphenyl)-7-[4-(trifluoromethyl)benzyl]-7H-purine-2-carboxylic acid] gave an IC50 of 309 nM.
With `C[C@@H](Nc1nc(C(=O)O)nc2nc(-c3ccc(Cl)c(F)c3)n(Cc3ccc(C(F)(F)F)cc3)c12)C1CC1` [Example 2.53, 8-(4-chloro-3-fluorophenyl)-6-{[(1R)-1-cyclopropylethyl]amino}-7-[4-(trifluoromethyl)benzyl]-7H-purine-2-carboxylic acid] the IC50 was 200 nM.
`Cc1cc(OC(F)(F)F)ccc1-c1nc2nc(C(=O)O)nc(N[C@H](C)C3CC3)c2n1Cc1ccc(C(F)(F)F)cc1` [Example 2.54, 6-{[(1R)-1-cyclopropylethyl]amino}-8-[2-methyl-4-(trifluoromethoxy)phenyl]-7-[4-(trifluoromethyl)benzyl]-7H-purine-2-carboxylic acid] showed an IC50 of 826 nM.
Work on `C[C@@H](Nc1nc(C(=O)O)nc2nc(-c3ccccc3Cl)n(Cc3ccc(C(F)(F)F)cc3)c12)C1CC1` [Example 2.55, 8-(2-chlorophenyl)-6-{[(1R)-1-cyclopropylethyl]amino}-7-[4-(trifluoromethyl)benzyl]-7H-purine-2-carboxylic acid] yielded an IC50 of 98.3 nM.
Work on `C[C@@H](Nc1nc(C(=O)O)nc2nc(-c3cccc(F)c3)n(Cc3ccc(C(F)(F)F)cc3)c12)C1CC1` [Example 2.56, 6-{[(1R)-1-cyclopropylethyl]amino}-8-(3-fluorophenyl)-7-[4-(trifluoromethyl)benzyl]-7H-purine-2-carboxylic acid] yielded an IC50 of 261 nM.
`C[C@@H](Nc1nc(C(=O)O)nc2nc(-c3ccc(C#N)cc3)n(Cc3ccc(C(F)(F)F)cc3)c12)C1CC1` [Example 2.57, 8-(4-cyanophenyl)-6-{[(1R)-1-cyclopropylethyl]amino}-7-[4-(trifluoromethyl)benzyl]-7H-purine-2-carboxylic acid] gave an IC50 of 432 nM.
With `C[C@@H](Nc1nc(C(=O)O)nc2nc(-c3ccc(Cl)cc3Cl)n(Cc3ccc(C(F)(F)F)cc3)c12)C1CC1` [Example 2.58, 6-{[(1R)-1-cyclopropylethyl]amino}-8-(2,4-dichlorophenyl)-7-[4-(trifluoromethyl)benzyl]-7H-purine-2-carboxylic acid] the IC50 was 213 nM.
Compound `Cc1cccc(-c2nc3nc(C(=O)O)nc(N[C@H](C)C4CC4)c3n2Cc2ccc(C(F)(F)F)cc2)c1C` [Example 2.59, 6-{[(1R)-1-cyclopropylethyl]amino}-8-(2,3-dimethylphenyl)-7-[4-(trifluoromethyl)benzyl]-7H-purine-2-carboxylic acid] has an IC50 of 147 nM.
In the case of `C[C@@H](Nc1nc(C(=O)O)nc2nc(-c3ccc4ccccc4c3)n(Cc3ccc(C(F)(F)F)cc3)c12)C1CC1` [Example 2.60, 6-{[(1R)-1-cyclopropylethyl]amino}-8-naphthalen-2-yl-7-[4-(trifluoromethyl)benzyl]-7H-purine-2-carboxylic acid], the IC50 is reported as 306 nM.
`C[C@@H](Nc1nc(C(=O)O)nc2nc(-c3ccc(F)c(Cl)c3)n(Cc3ccc(C(F)(F)F)cc3)c12)C1CCC1` [Example 2.61, 8-(3-chloro-4-fluorophenyl)-6-{ [(1R)-1-cyclobutylethyl]amino}-7-[4-(trifluoromethyl)benzyl]-7H-purine-2-carboxylic acid] gave an IC50 of 22.7 nM.
`Cc1cccc(C)c1-c1nc2nc(C(=O)O)nc(N[C@H](C)C3CC3)c2n1Cc1ccc(C(F)(F)F)cc1` [Example 2.62, 6-{[(1R)-1-cyclopropylethyl]amino}-8-(2,6-dimethylphenyl)-7-[4-(trifluoromethyl)benzyl]-7H-purine-2-carboxylic acid] showed an IC50 of 65.6 nM.
For `C[C@@H](Nc1nc(C(=O)O)nc2nc(-c3cc(Cl)ccc3Cl)n(Cc3ccc(C(F)(F)F)cc3)c12)C1CCC1` [Example 2.63, 6-{[(1R)-1-cyclobutylethyl]amino}-8-(2,5-dichlorophenyl)-7-[4-(trifluoromethyl)benzyl]-7H-purine-2-carboxylic acid], the IC50 was 10.9 nM.
In the case of `COc1cc(C#N)cc(-c2nc3nc(C(=O)O)nc(N[C@H](C)C4CCC4)c3n2Cc2ccc(C(F)(F)F)cc2)c1` [Example 2.64, 8-(3-cyano-5-methoxyphenyl)-6-{[(1R)-1-cyclobutylethyl]amino}-7-[4-(trifluoromethyl)benzyl]-7H-purine-2-carboxylic acid], the IC50 is reported as 89.1 nM.
`Cc1cccc(-c2nc3nc(C(=O)O)nc(N[C@H](C)C4CC4)c3n2Cc2ccc(C(F)(F)F)cc2)c1F` [Example 2.65, 6-{[(1R)-1-cyclopropylethyl]amino}-8-(2-fluoro-3-methylphenyl)-7-[4-(trifluoromethyl)benzyl]-7H-purine-2-carboxylic acid] showed an IC50 of 182 nM.
`COc1ccc(-c2nc3nc(C(=O)O)nc(N[C@H](C)C4CC4)c3n2Cc2ccc(C(F)(F)F)cc2)cc1Cl` [Example 2.66, 8-(3-chloro-4-methoxyphenyl)-6-{[(1R)-1-cyclopropylethyl]amino}-7-[4-(trifluoromethyl)benzyl]-7H-purine-2-carboxylic acid] gave an IC50 of 112 nM.
`C[C@@H](Nc1nc(C(=O)O)nc2nc(-c3cccc(OC(F)F)c3)n(Cc3ccc(C(F)(F)F)cc3)c12)C1CCC1` [Example 2.67, 6-{[(1R)-1-cyclobutylethyl]amino}-8-[3-(difluoromethoxy)phenyl]-7-[4-(trifluoromethyl)benzyl]-7H-purine-2-carboxylic acid] showed an IC50 of 41.7 nM.
`C[C@@H](Nc1nc(C(=O)O)nc2nc(-c3ccc(F)cc3F)n(Cc3ccc(C(F)(F)F)cc3)c12)C1CCC1` [Example 2.68, 6-{[(1R)-1-cyclobutylethyl]amino}-8-(2,4-difluorophenyl)-7-[4-(trifluoromethyl)benzyl]-7H-purine-2-carboxylic acid] gave an IC50 of 22.4 nM.
In the case of `C[C@@H](Nc1nc(C(=O)O)nc2nc(-c3ccc4ncccc4c3)n(Cc3ccc(C(F)(F)F)cc3)c12)C1CC1` [Example 2.69, 6-{[(1R)-1-cyclopropylethyl]amino}-8-quinolin-6-yl-7-[4-(trifluoromethyl)benzyl]-7H-purine-2-carboxylic acid], the IC50 is reported as 296 nM.
`C[C@@H](Nc1nc(C(=O)O)nc2nc(-c3cnc(N(C)C)nc3)n(Cc3ccc(C(F)(F)F)cc3)c12)C1CC1` [Example 2.70, 6-{[(1R)-1-cyclopropylethyl]amino}-8-[2-(dimethylamino)pyrimidin-5-yl]-7-[4-(trifluoromethyl)benzyl]-7H-purine-2-carboxylic acid] showed an IC50 of 1020 nM.
Compound `COc1cc(-c2nc3nc(C(=O)O)nc(N[C@H](C)C4CC4)c3n2Cc2ccc(C(F)(F)F)cc2)ccn1` [Example 2.71, 6-{[(1R)-1-cyclopropylethyl]amino}-8-(2-methoxypyridin-4-yl)-7-[4-(trifluoromethyl)benzyl]-7H-purine-2-carboxylic acid] has an IC50 of 589 nM.
Compound `CCOc1ccc(-c2nc3nc(C(=O)O)nc(N[C@H](C)C4CC4)c3n2Cc2ccc(C(F)(F)F)cc2)cn1` [Example 2.72, 6-{[(1R)-1-cyclopropylethyl]amino}-8-(6-ethoxypyridin-3-yl)-7-[4-(trifluoromethyl)benzyl]-7H-purine-2-carboxylic acid] has an IC50 of 613 nM.
With `C[C@@H](Nc1nc(C(=O)O)nc2nc(-c3cccc(F)c3F)n(Cc3ccc(C(F)(F)F)cc3)c12)C1CC1` [Example 2.73, 6-{[(1R)-1-cyclopropylethyl]amino}-8-(2,3-difluorophenyl)-7-[4-(trifluoromethyl)benzyl]-7H-purine-2-carboxylic acid] the IC50 was 111 nM.
`C[C@@H](Nc1nc(C(=O)O)nc2nc(-c3ccc4c(c3)CCC4)n(Cc3ccc(C(F)(F)F)cc3)c12)C1CC1` [Example 2.74, 6-{[(1R)-1-cyclopropylethyl]amino}-8-(2,3-dihydro-1H-inden-5-yl)-7-[4-(trifluoromethyl)benzyl]-7H-purine-2-carboxylic acid] showed an IC50 of 205 nM.
Work on `C[C@@H](Nc1nc(C(=O)O)nc2nc(-c3ccc(Br)cc3F)n(Cc3ccc(C(F)(F)F)cc3)c12)C1CC1` [Example 2.75, 8-(4-bromo-2-fluorophenyl)-6-{[(1R)-1-cyclopropylethyl]amino}-7-[4-(trifluoromethyl)benzyl]-7H-purine-2-carboxylic acid] yielded an IC50 of 204 nM.
Compound `C[C@@H](Nc1nc(C(=O)O)nc2nc(-c3ccc(Cl)c(Cl)c3)n(Cc3ccc(C(F)(F)F)cc3)c12)C1CCC1` [Example 2.76, 6-{[(1R)-1-cyclobutylethyl]amino}-8-(3,4-dichlorophenyl)-7-[4-(trifluoromethyl)benzyl]-7H-purine-2-carboxylic acid] has an IC50 of 20.4 nM.
Compound `C[C@@H](Nc1nc(C(=O)O)nc2nc(-c3ccncc3)n(Cc3ccc(C(F)(F)F)cc3)c12)C1CCC1` [Example 2.77, 6-{[(1R)-1-cyclobutylethyl]amino}-8-pyridin-4-yl-7-[4-(trifluoromethyl)benzyl]-7H-purine-2-carboxylic acid] has an IC50 of 72.6 nM.
With `C[C@@H](Nc1nc(C(=O)O)nc2nc(-c3ccccc3C(N)=O)n(Cc3ccc(C(F)(F)F)cc3)c12)C1CC1` [Example 2.78, 8-(2-carbamoylphenyl)-6-{[(1R)-1-cyclopropylethyl]amino}-7-[4-(trifluoromethyl)benzyl]-7H-purine-2-carboxylic acid] the IC50 was 219 nM.
